Counter-ions that a name gives are not always drawn.
Legend:
Type in all cases: cell-based
Human Tumor Cell lines = test: Antiproliferative activity in panel of human tumor cell lines; settings: average over the tested human tumor cell lines
Description: (§1) PROTOCOL 1, 2, and 3 are described in greater detail hereinbelow. In general, according to PROTOCOLS 1 and 2, the target ABAE and/or Human Tumor cells are exposed to the compound of Formula I for 48 hours. PROTOCOL 3 exposes ABAE cell to the compound for 4 days. A detailed description of the protocol is as follows:
(§2) Antiproliferative Activity in Human Tumor and Adult Bovine Aortic Endothelial (ABAE) Cell Lines
(§3) The antiproliferative activity of the compounds of Formula I of the present invention is evaluated in a panel comprised of human tumor cell lines and an adult bovine aortic endothelial cell line (ABAE). The human tumor cell lines are from:
(§4) 2) Colon tumors: MIP, CaCo2, and SW620.
(§5) All cell lines are maintained in log phase in RPMI 1640 media, supplemented with 5% fetal calf serum, penicillin/streptomycin and 2 mM L-glutamine. Cultures are renewed after 20 passages with cells from a fresh stock of batch-frozen early passage cells. Cell lines are routinely checked for mycoplasma contamination (Genprobe). In a laminar flow hood, cells (1-5×10^4) are plated into 96-well microtiter plates in a volume of 0.1 ml/well with a bulk microtiter dispenser (Denley). […] At this concentration, dimethylsulfoxide has no effect on cell growth. Compounds are added using a Tomtec dispenser which simultaneously dispenses from one 96-well plate, containing the drug dilutions, to the plates containing the cells. After two days of continuous drug exposure, 50% cold trichloroacetic acid (TCA) is added to 10% final concentration to fix the cells, and after 60 minutes at 4° C., the TCA is aspirated and the plates are washed 5 times with deionized water using a microtiter plate washer. The number of cells on the plate are quantitated using a protein dye-binding assay (Monks et al., 1991). A 0.4% solution of the dye, sulforhodamine B, in glacial acetic acid is added to the plates, and the plates are washed 5 times with 1% glacial acetic acid using the automatic plate washed. The bound stain is solubilized with 0.1 ml of 10 mM Tris base. The optical densities are read from an automatic spectrophotometric plate reader (Dynatech) directly to a main frame computer (VAX 8600).
(§6) Positive controls, that include standard chemotherapeutic drugs (i.e., adriamycin, cisplatin, etc.), are included in every experiment.
(§7) Background optical density measurements (complete media-cells, and complete media+drug-cells) are automatically subtracted from the appropriate control and test wells. Mean values and standard errors are determined from duplicate wells. A measure is also made of the optical density at time when the drugs are added. The number of cells after treatment (P), as % of control, is calculated for every concentration of drug, as follows: [formula] wherein: T is optical density measurement for treated cells after 48 hours;
(§8) C is optical density measurement for untreated cells after 48 hours;
(§9) Co is optical density measurement for cells at the time of drug addition.
(§10) IC50 of growth inhibition is calculated from the sets of P values using the RS-1 data package (BBN Software).
(§11) The antiproliferative activity of the compounds of Formula I is evaluated in a panel comprised of human tumor cell lines and an adult bovine aortic endothelial cell line (ABAE) as listed in PROTOCOL 1. This assay is a modification of PROTOCOL 1. The modifications include:
(§12) 1) each concentration for each compound is tested in a single well;
(§13) 2) compounds are tested at 20, 4, 0.8, 0.16 microgram/ml and additionally in some experiments at 100 and 0.32 microgram/ml;
(§14) 3) samples are pipetted into a 96-well plate for each of the cell lines by a Beckman Biomek 1000 SL robot;
(§15) 4) after fixing with TCA each well is washed with 0.35 ml distilled water twice, not five times;
(§16) 5) after staining with sulforhodamine B each well is washed 3 times, not five times; […]

A2780/DDP = test: Antiproliferative activity in human ovarian tumor cell line A2780/DDP; settings: PROTOCOL 1 and PROTOCOL 2
Description: as §1, §2, §3, §5, §6, §7, §8, §9, §10, §11, §12, §13, §14, §15, §16

MIP = test: Antiproliferative activity in human colon tumor cell line MIP; settings: PROTOCOL 1 and PROTOCOL 2
Description: as §1, §2, §3, §4, §5, §6, §7, §8, §9, §10, §11, §12, §13, §14, §15, §16

HTB 16 = test: Antiproliferative activity in human tumor cell line HTB 16; settings: ovarian tumor line; PROTOCOL 1 and PROTOCOL 2
Description: as §1, §2, §3, §5, §6, §7, §8, §9, §10, §11, §12, §13, §14, §15, §16

A2780S = test: Antiproliferative activity in human ovarian tumor cell line A2780S; settings: PROTOCOL 1 and PROTOCOL 2
Description: as §1, §2, §3, §5, §6, §7, §8, §9, §10, §11, §12, §13, §14, §15, §16

SW620 = test: Antiproliferative activity in human colon tumor cell line SW620; settings: PROTOCOL 1 and PROTOCOL 2
Description: as §1, §2, §3, §4, §5, §6, §7, §8, §9, §10, §11, §12, §13, §14, §15, §16

[1] = test system: Adult Bovine Aortic Endothelial (ABAE) cell line; test: Antiproliferative activity in ABAE cells, PROTOCOL 1 (48 h, SRB)
Description: PROTOCOL 1, 2, and 3 are described in greater detail hereinbelow. In general, according to PROTOCOLS 1 and 2, the target ABAE and/or Human Tumor cells are exposed to the compound of Formula I for 48 hours. PROTOCOL 3 exposes ABAE cell to the compound for 4 days. A detailed description of the protocol is as follows: Antiproliferative Activity in Human Tumor and Adult Bovine Aortic Endothelial (ABAE) Cell Lines The antiproliferative activity of the compounds of Formula I of the present invention is evaluated in a panel comprised of human tumor cell lines and an adult bovine aortic endothelial cell line (ABAE). […] The number of cells on the plate are quantitated using a protein dye-binding assay (Monks et al., 1991). […] The optical densities are read from an automatic spectrophotometric plate reader (Dynatech) directly to a main frame computer (VAX 8600). […] Mean values and standard errors are determined from duplicate wells. […] The number of cells after treatment (P), as % of control, is calculated for every concentration of drug, as follows: [formula] wherein: T is optical density measurement for treated cells after 48 hours; C is optical density measurement for untreated cells after 48 hours; Co is optical density measurement for cells at the time of drug addition. IC50 of growth inhibition is calculated from the sets of P values using the RS-1 data package (BBN Software). […]

[2] = test system: Adult Bovine Aortic Endothelial (ABAE) cell line; test: Antiproliferative activity in ABAE cells, PROTOCOL 3 (4 days, cell count); settings: PROTOCOL 3, FIG. 1
Description: as §1
Antiproliferative Activity in Adult Bovine Aortic Endothelial (ABAE) Cell Line
ABAE cells are grown in DMEM media (Mediatech, Washington, D.C.) supplemented with 10% calf serum (Hyclone). ABAE cells are plated in 24-well dishes at 8,000 cells/well, followed by the addition of increasing concentrations of 7-[substituted amino]-9-[(substituted glycyl)amido]-6-demethyl-6-deoxytetracyclines. After four days, the cells are detached and counted. […] The growth inhibition (I) as % of control is calculated as follows: [formula] wherein: Nc is the number of cells in untreated wells;
Nt is the number of cells in treated wells;
No is the number of plated cells.
IC50 of growth inhibition is determined from the sets of I values plotted by Kaleidograph software (Abelbeck Software).
In addition FIG. 1, presents the dose response curve of the compound of Example 6 for the above ABAE cell line obtained by PROTOCOL 3.

[3] = test system: Adult Bovine Aortic Endothelial (ABAE) cell line; test: Antiproliferative activity in ABAE cells, PROTOCOL 2 (48 h, SRB, single well)
Description: as §1, §2, §11, §12, §13, §14, §15
5) after staining with sulforhodamine B each well is washed 3 times, not five times;
6) the growth inhibition (I) as % of control, is calculated using the RS-1 data package (BBN Software), for every concentration of drug, as follows: [formula] wherein: T is optical density measurement for treated cells after 48 hours;
as §8
7) IC50 of growth inhibition is determined from graphically from dose response curves, as is known in the art.
Table 1 presents the results depicting the antiproliferative activity of the compounds of Formula I against an Adult Bovine Aortic Endothelial (ABAE) cell line, as evaluated by PROTOCOL 1 and PROTOCOL 2. The results are presented in terms of IC50 and are as follows.

Structure (SMILES) | AVERAGE IC50 FOR TUMOR CELL LINES (Human Tumor Cell lines) [µg/mL] | A2780/DDP IC50 (A2780/DDP) [µg/mL] | MIP IC50 (MIP) [µg/mL] | HTB 16 IC50 (HTB 16) [µg/mL] | A2780S IC50 (A2780S) [µg/mL] | SW620 IC50 (SW620) [µg/mL] | IC50 PROTOCOL 1 [1] [µg/mL] | inhibits 50% of cell growth [2] | IC50 PROTOCOL 2 ([3]; ABAE cells, 48 h, PROTOCOL 2) [µg/mL] | activity in preventing proliferation of ABAE cells compared to Minocycline ([3]; Table 1)
CN(C)[C@@H]1C(O)=C(C(N)=O)C(=O)[C@@]2(O)C(O)=C3C(=O)c4c(ccc(NC(=O)CN5CCCCC5)c4O)CC3CC12 (stereo partly drawn) [Example 3, [7S-(7alpha,10aalpha)]-N-9-(Aminocarbonyl)-7-(dimethylamino)-5,5a,6,6a,7,10,10a,12-octahydro-1,8,10a,11-tetrahydroxy-10,12-dioxo-1-piperidineacetamidedihydrochloride] | 2.7 | 2.7 | 3.0 | 2.3 | 2.5 | 2.8 |  |  |  | 
CCCNCC(=O)Nc1ccc2c(c1O)C(=O)C1=C(O)[C@]3(O)C(=O)C(C(N)=O)=C(O)[C@@H](N(C)C)C3CC1C2.Cl.Cl (stereo partly shown) [Example 4] | 2.85 | 3.1 | 3.4 | 3.2 | 3.2 | 1.3 | 5.2 |  |  | 
CN(C)[C@@H]1C(O)=C(C(N)=O)C(=O)[C@@]2(O)C(O)=C3C(=O)c4c(ccc(NC(=O)CN5CCCC5)c4O)CC3CC12.Cl.Cl (stereo partly shown) [Example 5] | 2.7 | 2.7 | 3.0 | 2.3 | 2.5 | 2.8 |  |  |  | 
CCCCNCC(=O)Nc1ccc2c(c1O)C(=O)C1=C(O)[C@]3(O)C(=O)C(C(N)=O)=C(O)[C@@H](N(C)C)C3CC1C2.Cl (stereo partly drawn) [Example 6, [4S-(4alpha,12aalpha)]-9-[[(Butylamino)acetyl]amino]-4-(dimethylamino)-1,4,4a,5,5a,6,11,12a-octahydro-3,10,12,12a-tetrahydroxy-1,11-dioxo-2-naphthacenecarboxamide monohydrochloride] | 3.2 | 3.3 | 3.4 | 2.9 | 3.4 | 3.2 |  | approximately 3 μg/ml | 4 | extraordinary activity in preventing the proliferation of ABAE cells as compared to the prior art compound, Minocycline
CN(C)[C@@H]1C(O)=C(C(N)=O)C(=O)[C@@]2(O)C(O)=C3C(=O)c4c(ccc(NC(=O)CNCC5CC5)c4O)CC3CC12.Cl.Cl (stereo partly drawn) [Example 7, [4S-(4alpha,12aalpha)]-9-[[[(Cyclopropylmethyl)amino)acetyl]amino]-4-(dimethylamino)-1,4,4a,5,5a,6,11,12a-octahydro-3,10,12,12a-tetrahydroxy-1,11-dioxo-2-naphthacenecarboxamide dihydrochloride] | 4.5 | 3.9 | 6.3 | 3.3 | 4.9 | 3.9 |  |  |  | 
CN(C)CC(=O)Nc1ccc2c(c1O)C(=O)C1=C(O)[C@]3(O)C(=O)C(C(N)=O)=C(O)[C@@H](N(C)C)C3CC1C2.Cl.Cl (stereo partly drawn) [Example 8, [4S-(4alpha,121aalpha)]-9-[[(Dimethylamino)acetyl]-amino]-4-(dimethylamino)-1,4,4a,5,5a,6,11,12a-octahydro-3,10,12,12a-tetrahydroxy-1,11-dioxo-2-naphthacenecarboxamide dihydrochloride] | 5.1 | 5.8 | 6.0 | 4.1 | 4.8 | 5.0 |  |  |  | 
CC(C)CNCC(=O)Nc1ccc2c(c1O)C(=O)C1=C(O)[C@]3(O)C(=O)C(C(N)=O)=C(O)[C@@H](N(C)C)C3CC1C2.Cl.Cl (stereo partly drawn) [Example 9, [b 4S-(4alpha,12aalpha)]-4-(Dimethylamino)-1,4,4a,5,5a,-6,11,12a-octahydro-3,10,12,12a-tetrahydroxy-9-[[[(2-methylpropyl)amino]acetyl]amino]-1,11-dioxo-2-naphthacenecarboxamide dihydrochloride] | 5.5 | 7.7 | 5.75 | 5.0 | 3.5 | 5.7 |  |  |  | 
